Results from patent US11420958B2, “Aryl and heteroaryl substituted indole compounds” (BRISTOL-MYERS SQUIBB COMPANY, priority 2017, dated 2022).

Assays:
Assay type in all cases: cell-based
[1] = target: human TLR7 (Homo sapiens (Human), UniProt Q9NYK1); assay: TLR7 inhibition reporter assay (HEK-Blue, SEAP); conditions: HEK-Blue cells overexpressing human TLR7, gardiquimod 7.5 μM stimulation
Description: (§1) TLR7/8/9 Inhibition Reporter Assays
(§2) HEK-Blue™-cells (Invivogen) overexpressing human TLR7, TLR8 or TLR9 receptors were used for screening inhibitors of these receptors using an inducible SEAP (secreted embryonic alkaline phosphatase) reporter gene under the control of the IFN-β minimal promoter fused to five NF-κc Band AP-1-binding sites. Briefly, cells are seeded into Greiner 384 well plates (15000 cells per well for TLR7, 20,000 for TLR8 and 25,000 for TLR9) and then treated with test compounds in DMSO to yield a final dose response concentration range of 0.05 nM-50 μM. After a 30 minute compound pre-treatment at room temperature, the cells are then stimulated with a TLR7 ligand (gardiquimod at a final concentration of 7.5 μM), TLR8 ligand (R848 at a final concentration of 15.9 μM) or TLR9 ligand (ODN2006 at final concentration of 5 nM) to activate NF-κB and AP-1 which induce the production of SEAP. After a 22 hour incubation at 37° C., 5% CO2, SEAP levels are determined with the addition of HEK-Bue™ Detection reagent (Invivogen), a cell culture medium that allows for detection of SEAP, according to manufacturer's specifications. The percent inhibition is determined as the % reduction in the HEK-Blue signal present in wells treated with agonist plus DMSO alone compared to wells treated with a known inhibitor.

[2] = target: human TLR8 (Homo sapiens (Human), UniProt Q9NR97); assay: TLR8 inhibition reporter assay (HEK-Blue, SEAP); conditions: HEK-Blue cells overexpressing human TLR8, R848 15.9 μM stimulation
Sequence of human TLR8 (Q9NR97 27-1041): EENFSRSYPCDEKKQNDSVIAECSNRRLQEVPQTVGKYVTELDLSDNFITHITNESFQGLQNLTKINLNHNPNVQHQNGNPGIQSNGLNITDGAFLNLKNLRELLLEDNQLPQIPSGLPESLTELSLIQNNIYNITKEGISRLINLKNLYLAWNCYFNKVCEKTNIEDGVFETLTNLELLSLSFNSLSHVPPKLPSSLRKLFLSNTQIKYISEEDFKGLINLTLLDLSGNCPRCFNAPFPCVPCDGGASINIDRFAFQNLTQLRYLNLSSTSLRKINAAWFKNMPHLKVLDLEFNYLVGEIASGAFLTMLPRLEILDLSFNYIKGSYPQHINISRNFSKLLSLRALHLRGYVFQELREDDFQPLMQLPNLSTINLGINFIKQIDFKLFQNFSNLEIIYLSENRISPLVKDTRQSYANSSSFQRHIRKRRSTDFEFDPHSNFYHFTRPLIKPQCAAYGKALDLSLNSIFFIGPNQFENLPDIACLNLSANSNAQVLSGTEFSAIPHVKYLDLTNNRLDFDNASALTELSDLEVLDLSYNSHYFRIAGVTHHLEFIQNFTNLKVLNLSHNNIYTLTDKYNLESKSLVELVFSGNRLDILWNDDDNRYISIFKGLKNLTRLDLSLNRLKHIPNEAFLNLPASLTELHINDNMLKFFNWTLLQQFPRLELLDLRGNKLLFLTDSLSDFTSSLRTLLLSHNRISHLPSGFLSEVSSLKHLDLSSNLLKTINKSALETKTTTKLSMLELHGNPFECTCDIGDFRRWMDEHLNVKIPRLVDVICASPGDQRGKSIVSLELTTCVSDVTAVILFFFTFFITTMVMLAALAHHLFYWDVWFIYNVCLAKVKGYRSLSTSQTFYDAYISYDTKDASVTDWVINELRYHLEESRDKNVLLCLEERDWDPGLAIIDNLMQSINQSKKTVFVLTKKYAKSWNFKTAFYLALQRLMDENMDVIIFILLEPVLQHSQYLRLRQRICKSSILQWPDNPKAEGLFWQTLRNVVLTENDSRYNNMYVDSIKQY
Description: as §1, §2

[3] = target: human TLR9 (Homo sapiens (Human), UniProt Q9NR96); assay: TLR9 inhibition reporter assay (HEK-Blue, SEAP); conditions: HEK-Blue cells overexpressing human TLR9, ODN2006 5 nM stimulation
Sequence of human TLR9 (Q9NR96 26-1032): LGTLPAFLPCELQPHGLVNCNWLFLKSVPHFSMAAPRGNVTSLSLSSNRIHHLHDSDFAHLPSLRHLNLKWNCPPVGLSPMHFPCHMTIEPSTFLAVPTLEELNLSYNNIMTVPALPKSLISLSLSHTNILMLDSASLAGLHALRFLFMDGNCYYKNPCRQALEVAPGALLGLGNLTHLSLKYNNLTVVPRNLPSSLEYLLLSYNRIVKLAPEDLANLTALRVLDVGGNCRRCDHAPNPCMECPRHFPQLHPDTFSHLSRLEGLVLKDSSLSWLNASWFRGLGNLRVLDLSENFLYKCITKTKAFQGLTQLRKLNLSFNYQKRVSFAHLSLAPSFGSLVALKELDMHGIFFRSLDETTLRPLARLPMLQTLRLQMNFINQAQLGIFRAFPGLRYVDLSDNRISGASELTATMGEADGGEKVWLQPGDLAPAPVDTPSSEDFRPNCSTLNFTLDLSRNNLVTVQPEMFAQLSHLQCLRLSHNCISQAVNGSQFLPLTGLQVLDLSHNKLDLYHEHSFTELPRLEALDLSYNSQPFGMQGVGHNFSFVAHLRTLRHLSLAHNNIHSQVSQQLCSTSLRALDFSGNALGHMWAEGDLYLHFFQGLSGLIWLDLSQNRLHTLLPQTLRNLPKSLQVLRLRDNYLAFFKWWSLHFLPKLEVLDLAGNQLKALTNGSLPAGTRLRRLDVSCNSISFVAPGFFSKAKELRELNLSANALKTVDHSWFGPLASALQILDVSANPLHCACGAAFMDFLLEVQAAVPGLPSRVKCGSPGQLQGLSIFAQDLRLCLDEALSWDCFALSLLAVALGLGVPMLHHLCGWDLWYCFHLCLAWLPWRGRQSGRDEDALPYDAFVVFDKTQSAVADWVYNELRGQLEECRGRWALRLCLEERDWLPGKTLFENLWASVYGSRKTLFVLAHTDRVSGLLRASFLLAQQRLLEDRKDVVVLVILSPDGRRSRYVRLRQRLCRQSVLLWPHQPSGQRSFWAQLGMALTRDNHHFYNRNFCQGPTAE
Description: as §1, §2

Sequence of human TLR7 (Q9NYK1 27-1049): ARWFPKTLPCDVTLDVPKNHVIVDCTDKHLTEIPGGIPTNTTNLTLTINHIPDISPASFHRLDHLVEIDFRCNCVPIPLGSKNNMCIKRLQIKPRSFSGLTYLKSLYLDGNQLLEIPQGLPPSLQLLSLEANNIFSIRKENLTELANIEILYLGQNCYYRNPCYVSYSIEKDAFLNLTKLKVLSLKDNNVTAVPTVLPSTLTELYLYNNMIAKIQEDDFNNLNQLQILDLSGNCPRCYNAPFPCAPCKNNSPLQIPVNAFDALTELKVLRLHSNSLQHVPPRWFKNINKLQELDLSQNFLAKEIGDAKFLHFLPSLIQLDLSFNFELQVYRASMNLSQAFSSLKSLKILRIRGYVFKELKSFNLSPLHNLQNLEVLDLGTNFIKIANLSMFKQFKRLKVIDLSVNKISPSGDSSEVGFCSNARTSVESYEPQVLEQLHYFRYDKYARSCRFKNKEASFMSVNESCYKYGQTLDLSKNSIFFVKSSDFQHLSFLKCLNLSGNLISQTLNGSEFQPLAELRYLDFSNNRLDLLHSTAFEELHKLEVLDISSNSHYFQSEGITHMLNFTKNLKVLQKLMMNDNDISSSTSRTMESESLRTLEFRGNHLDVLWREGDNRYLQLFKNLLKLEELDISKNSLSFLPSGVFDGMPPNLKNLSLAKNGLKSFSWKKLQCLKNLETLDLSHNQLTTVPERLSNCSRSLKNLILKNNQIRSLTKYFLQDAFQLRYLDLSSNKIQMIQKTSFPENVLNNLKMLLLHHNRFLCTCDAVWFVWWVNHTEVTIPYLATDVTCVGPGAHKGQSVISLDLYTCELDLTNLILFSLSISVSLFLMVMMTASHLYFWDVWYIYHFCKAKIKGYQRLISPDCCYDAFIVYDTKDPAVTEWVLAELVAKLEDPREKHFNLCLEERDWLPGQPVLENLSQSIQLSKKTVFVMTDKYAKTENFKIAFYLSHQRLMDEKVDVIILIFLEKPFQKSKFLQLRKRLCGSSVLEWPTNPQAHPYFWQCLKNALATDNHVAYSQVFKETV

IC50 [1] [nM] | IC50 [2] [nM] | IC50 [3] [nM] | SMILES
107 | 9 | 2060 | COc1ccc(-c2[nH]c3ccc(-c4cccc(C(=O)N5CCNCC5)c4)cc3c2C(C)C)cc1OC [Example 1, 2-(3,4-dimethoxyphenyl)-5-[3-(piperazine-1-carbonyl)phenyl]-3-(propan-2-yl)-1H-indole]
10 | 2.9 | 1840 | Cc1cc(-c2[nH]c3ccc(-c4sc(C5CCNCC5)nc4C)cc3c2C(C)C)ccn1 [Example 201, 5-(3-isopropyl-2-(2-methylpyridin-4-yl)-1H-indol-5-yl)-4-methyl-2-(piperidin-4-yl)thiazole]
647 | 123 | 19900 | CCc1c(-c2ccc(OC)c(OC)c2)[nH]c2ccc(-c3noc([C@@H](N)Cc4c[nH]cn4)n3)cc12 [Example 440, (S)-1-(3-(2-(3,4-dimethoxyphenyl)-3-ethyl-1H-indol-5-yl)-1,2,4-oxadiazol-5-yl)-2-(1H-imidazol-4-yl)ethan-1-amine]
192 | 20 | 2250 | COc1ccc(-c2[nH]c3ccc(-c4nc(C(=O)NC5CCN(C(C)C)CC5)cs4)cc3c2C(C)C)cc1OC [Example 147, 2-(2-(3,4-dimethoxyphenyl)-3-isopropyl-1H-indol-5-yl)-N-(1-isopropylpiperidin-4-yl)thiazole-4-carboxamide]
2930 | 1980 | 5000 | COc1ccc(-c2[nH]c3ccc(-c4ccc5c(c4)NCCC5)cc3c2C(C)C)cc1OC [Example 161, 7-(2-(3,4-dimethoxyphenyl)-3-isopropyl-1H-indol-5-yl)-1,2,3,4-tetrahydroquinoline]
960 | 56 | 2530 | COc1ccc(-c2[nH]c3ccc(-c4ccnc(N5CCN(C6CCC6)CC5)c4)cc3c2C(C)C)cc1OC [Example 427, 5-(2-(4-cyclobutylpiperazin-1-yl)pyridin-4-yl)-2-(3,4-dimethoxyphenyl)-3-isopropyl-1H-indole]
66 | 3.2 | 653 | CC(C)c1c(-c2ccnc3[nH]ncc23)[nH]c2ccc(-c3nnc(C4CCCN(C)C4)o3)cc12 (stereo not drawn) [Example 167, 2-(3-isopropyl-2-(1H-pyrazolo[3,4-b]pyridin-4-yl)-1H-indol-5-yl)-5-(1-methylpiperidin-3-yl)-1,3,4-oxadiazole]
32 | 1.5 | 961 | CC(C)c1c(-c2ccnc3[nH]ncc23)[nH]c2ccc(-c3cc4c(s3)CNCC4)cc12 [Example 229, 2-(3-isopropyl-2-(1H-pyrazolo[3,4-b]pyridin-4-yl)-1H-indol-5-yl)-4,5,6,7-tetrahydrothieno[2,3-c]pyridine]
38 | 6.7 | 5040 | Cc1cc(-c2[nH]c3ccc(-c4nnc(C5CNCCO5)o4)cc3c2C(C)C)ccn1 (stereo not drawn) [Example 70, 2-(5-(3-isopropyl-2-(2-methylpyridin-4-yl)-1H-indol-5-yl)-1,3,4-oxadiazol-2-yl)morpholine]
6 | 1.5 | 490 | Cc1cc(-c2[nH]c3ccc(-c4cc5c(s4)CN(C)CC5)cc3c2C(C)C)cc(C)n1 [Example 361, 2-(2-(2,6-dimethylpyridin-4-yl)-3-isopropyl-1H-indol-5-yl)-6-methyl-4,5,6,7-tetrahydrothieno[2,3-c]pyridine]
100 | 10 | 2090 | Cc1cc(-c2[nH]c3ccc(-c4nc(C(=O)NCC(C)(C)N5CCOCC5)co4)cc3c2C(C)C)cc(C)n1 [Example 289, 2-(2-(2,6-dimethylpyridin-4-yl)-3-isopropyl-1H-indol-5-yl)-N-(2-methyl-2-morpholinopropyl)oxazole-4-carboxamide]
10 | 4.6 | 952 | CNCC(=O)Nc1cnc(-c2ccc3[nH]c(-c4cc(C)nc(C)c4)c(C(C)C)c3c2)cn1 [Example 356, N-(5-(2-(2,6-dimethylpyridin-4-yl)-3-isopropyl-1H-indol-5-yl)pyrazin-2-yl)-2-(methylamino)acetamide]
27 | 6.8 | 738 | Cc1cc(-c2[nH]c3ccc(-c4cccc(C(=O)N5CC6CNCC6C5)c4)cc3c2C(C)C)ccn1 (stereo not drawn) [Example 15, (hexahydropyrrolo[3,4-c]pyrrol-2(1H)-yl)(3-(3-isopropyl-2-(2-methylpyridin-4-yl)-1H-indol-5-yl)phenyl)methanone]
78 | 18 | 593 | CCc1c(-c2ccnc(C)c2)[nH]c2ccc(-c3noc(C4CCNC4)n3)cc12 (stereo not drawn) [Example 456, 3-(3-ethyl-2-(2-methylpyridin-4-yl)-1H-indol-5-yl)-5-(pyrrolidin-3-yl)-1,2,4-oxadiazole]
71 | 77 | 7480 | Cc1cc(-c2[nH]c3ccc(-c4nnc(C5CCCNC5)[nH]4)cc3c2C(C)C)ccn1 (stereo not drawn) [Example 184, 3-isopropyl-2-(2-methylpyridin-4-yl)-5-(5-(piperidin-3-yl)-4H-1,2,4-triazol-3-yl)-1H-indole]
28 | 65 | > 50000 | CNC(=O)c1ccc(-c2ccc3[nH]c(-c4cc(C)nc(C)c4)c(C(C)C)c3c2)cn1 [Example 316, 5-(2-(2,6-dimethylpyridin-4-yl)-3-isopropyl-1H-indol-5-yl)-N-methylpicolinamide]
154 | 18 | 325 | CCc1c(-c2ccc(OC)c(OC)c2)[nH]c2ccc(-c3nnc(C(=O)N4CC5CNCC5C4)o3)cc12 (stereo not drawn) [Example 40, (5-(2-(3,4-dimethoxyphenyl)-3-ethyl-1H-indol-5-yl)-1,3,4-oxadiazol-2-yl)(hexahydropyrrolo[3,4-c]pyrrol-2(1H)-yl)methanone]
181 | 30 | 5890 | COc1ccc(-c2[nH]c3ccc(-c4ccc(NC5CCN(C(C)C)CC5)cc4)cc3c2C(C)C)cc1OC [Example 385, N-(4-(2-(3,4-dimethoxyphenyl)-3-isopropyl-1H-indol-5-yl)phenyl)-1-isopropylpiperidin-4-amine]
163 | 37 | 1050 | CCc1c(-c2ccnc(C)c2)[nH]c2ccc(-c3noc(C4CNC4)n3)cc12 [Example 458, 5-(azetidin-3-yl)-3-(3-ethyl-2-(2-methylpyridin-4-yl)-1H-indol-5-yl)-1,2,4-oxadiazole]
2700 | 535 | > 50000 | Cc1cc(-c2[nH]c3ccc(-c4nnc(C5CCC(C(F)(F)F)CC5)o4)cc3c2C(C)C)ccn1 (stereo not drawn) [Example 78, 2-(3-isopropyl-2-(2-methylpyridin-4-yl)-1H-indol-5-yl)-5-(4-(trifluoromethyl)cyclohexyl)-1,3,4-oxadiazole]
314 | 18 | 4480 | CC(C)c1c(-c2ccnc3[nH]ncc23)[nH]c2ccc(-c3nnc(CN4CC[C@@H](N(C)C)C4)o3)cc12 [Example 157, (R)-1-((5-(3-isopropyl-2-(1H-pyrazolo[3,4-b]pyridin-4-yl)-1H-indol-5-yl)-1,3,4-oxadiazol-2-yl)methyl)-N,N-dimethylpyrrolidin-3-amine]
22 | 18 | 665 | COc1ccc(-c2[nH]c3ccc(-c4ccnc(C(=O)NC5CCN(C(C)C)CC5)c4)cc3c2C(C)C)cc1OC [Example 11, 4-(2-(3,4-dimethoxyphenyl)-3-isopropyl-1H-indol-5-yl)-N-(1-isopropylpiperidin-4-yl)picolinamide]
158 | 40 | 2550 | COc1ccc(-c2[nH]c3ccc(-c4nnc(C5CCN(CC(=O)N(C)C)CC5)o4)cc3c2CC(F)(F)F)cc1OC [Example 83, 2-(4-(5-(2-(3,4-dimethoxyphenyl)-3-(2,2,2-trifluoroethyl)-1H-indol-5-yl)-1,3,4-oxadiazol-2-yl)piperidin-1-yl)-N,N-dimethylacetamide]
20 | 3.3 | 46700 | Cc1cc(-c2[nH]c3ccc(-c4nc5c(s4)CCN(CC(=O)N(C)C)C5)cc3c2C(C)C)cc(C)n1 [Example 329, 2-(2-(2-(2,6-dimethylpyridin-4-yl)-3-isopropyl-1H-indol-5-yl)-6,7-dihydrothiazolo[4,5-c]pyridin-5(4H)-yl)-N,N-dimethylacetamide]
6.4 | 5.9 | 295 | Cc1cc(-c2[nH]c3ccc(-c4cc5c(s4)CN(C(=O)CN(C)C)CC5)cc3c2C(C)C)cc(C)n1 [Example 341, 2-(dimethylamino)-1-(2-(2-(2,6-dimethylpyridin-4-yl)-3-isopropyl-1H-indol-5-yl)-4,7-dihydrothieno[2,3-c]pyridin-6(5H)-yl)ethan-1-one]
277 | 83 | 6970 | Cc1cc(-c2[nH]c3ccc(-c4nnc(C5CCNCC5)[nH]4)cc3c2C(C)C)ccn1 [Example 196, 3-isopropyl-2-(2-methylpyridin-4-yl)-5-(5-(piperidin-4-yl)-4H-1,2,4-triazol-3-yl)-1H-indole]
